# In BindingDB's records for PubMed 36074125 (Purdue University, 2022):
# Target: T1, N-terminal Xaa-Pro-Lys N-methyltransferase 1 (Homo sapiens, UniProt Q9BV86)
# T1 sequence (Q9BV86 whole entry): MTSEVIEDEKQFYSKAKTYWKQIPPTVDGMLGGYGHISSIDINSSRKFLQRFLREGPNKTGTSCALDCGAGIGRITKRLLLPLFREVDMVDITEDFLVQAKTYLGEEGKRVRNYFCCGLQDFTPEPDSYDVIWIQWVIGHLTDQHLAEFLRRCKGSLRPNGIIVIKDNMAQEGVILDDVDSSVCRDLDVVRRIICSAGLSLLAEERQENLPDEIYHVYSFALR
# Assay: Inhibition of full length NTMT1 (1 to 222 residues) (unknown origin) expressed in Escherichia coli BL21 (DE3) using GPKRIA as substrate preincubated for 10 mins followed by substrate addition measured after 15 mins by microplate reader method
row,SMILES,IC50 [nM]
1,CC(C)(NC(=O)O[C@@H]1CN2CCC1CC2)c1csc(-c2ccc(Cl)cc2)n1,910
2,CC(C)(NC(=O)O[C@@H]1CN2CCC1CC2)c1csc(-c2ccc(C(F)(F)F)cc2)n1,3200
